In patent US8506984B2, “Therapeutic agent elution control process” (Cordis Corporation, priority 2006, dated 2013):
Values belong to the compound of their own block, whether it stands above or below them.

What was measured:
[1] = Drug concentration in liquid formulations (liquid chromatography / HPLC); format: physicochemical; conditions: Vitamin E TPGS excipient, water and ethanol (<2%) co-solvents
Excerpt: In accordance with exemplary embodiments of the present invention, a series of liquid formulations were developed for the local or regional delivery of water insoluble compounds such as sirolimus and its analogs, including CCI-779, ABT-578 and everolimus, through weeping balloons and catheter injection needles. […] These liquid formulations increase the apparent solubility of the pharmacologically active but water insoluble compounds by two to four orders of magnitude as compared to the solubility limits of the compounds in water. These liquid formulations rely on the use of a very small amount of organic solvents such as Ethanol (typically less than two percent) and a larger amount of safe amphiphilic (of or relating to a molecule having a polar, water soluble group attached to a non-polar, water insoluble […]) excipients such as polyethylene glycol (PEG 200, PEG 400) and vitamin E TPGS to enhance the solubility of the compounds. These liquid formulations of highly water insoluble compounds are stable and readily flowable at room temperature. Certain excipients, such as Vitamin E TPGS and BHT may be utilized to enhance the storage stability of sirolimus compounds through their anti-oxidation properties. […]

[2] = system: human coronary artery smooth muscle cells; experiment: Proliferation of non-synchronized cultured human coronary artery smooth muscle cells stimulated with two percent fetal bovine serum; format: cell-based; conditions: for effect of added agent on anti-proliferative rapamycin dose response: added to rapamycin-treated cells
Excerpt: The multiple curves represent various concentrations of mycophenolic acid ranging from zero to one thousand nanomolar concentrations. […] This potentiation observed in cultured coronary artery smooth muscle cells preferably translates to an enhancement in anti-restenotic efficacy following vascular injury and a reduction in the required amount of either agent to achieve the desired anti-restenotic effect.
FIG. 58 illustrates, in graphical format, the anti-proliferative activity of cladribine in non-synchronized cultured human coronary artery smooth muscle cells stimulated with two percent fetal bovine serum.
The multiple curves represent various concentrations of cladribine ranging from zero to nine hundred nanomolar concentrations. […] As illustrated, the percent inhibition increases substantially as the dose of cladribine increases.

[3] = system: human coronary artery smooth muscle cells; experiment: Proliferation of synchronized cultured human coronary artery smooth muscle cells stimulated with two percent fetal bovine serum; format: cell-based; conditions: for effect of added agent on anti-proliferative rapamycin dose response: added to rapamycin-treated cells
Excerpt: (§1) The multiple curves represent various concentrations of topotecan ranging from zero to three hundred nanomolar concentrations.
(§2) The multiple curves represent various concentrations of etoposide ranging from zero to eight hundred nanomolar concentrations.
The multiple curves represent various concentrations of Panzem® ranging from zero to 100 micromolar concentrations.

[4] = system: human coronary artery smooth muscle cell; experiment: MTS cytotoxicity assay; format: cell-based; conditions: concentrations up to 30,000.00 nanomolar
Excerpt: Typically, a control is utilized to determine baseline toxicity.

[5] = Porcine drug elution PK study of dual drug eluting stent; format: in vivo; conditions: after eight (8) days of implantation; single-layer sirolimus/cilostazol coating (FIG. 83), 100 μg BMA overcoat
Excerpt: Another critical parameter for the performance of the thrombus resistance of a device coated with cilostazol is the duration of the drug release from the coating. This is of particular significance in the two weeks after device implantation. In the porcine drug elution PK studies of the dual drug eluting coating, both cilostazol and sirolius were slowly released from the coating, resulting in a sustained drug release profile. The purpose of the porcine PK study is to assess the local pharmacokinetics of a drug eluting stent at a given implantation time. Normally three stents are implanted in three different coronary arteries in a pig for a given time point and then retrieved for total drug recovery analysis. The stents are retrieved at predetermined time points; namely, 1, 3 and 8 days. The stents are extracted and the total amount of drug remaining on the stents is determined by analysis utilizing HPLC (high performance liquid chromatography) for total drug amount. The difference between the original amount of drug on the stent and the amount of drug retrieved at a given time represents the amount of drug released in that period. The continuous release of drug into surrounding arterial tissue is what prevents the neointimal growth and restenosis in the coronary artery. A normal plot represents the percentage of total drug released (%, y-axis) vs. time of implantation (day, x-axis). […]

[6] = In vitro release from sirolimus/cilostazol single layer stent coating; format: physicochemical; conditions: single-layer sirolimus/cilostazol coating (FIG. 83)
[7] = system: cell viability; experiment: Cell viability assay; format: cell-based
Excerpt: as §1, §2

[8] = system: human coronary artery smooth muscle cell; experiment: Human coronary artery smooth muscle cell proliferation, in vitro cell culture study (trichostatin A); format: cell-based
Excerpt: FIG. 51 is a graph of the inhibition of coronary artery smooth muscle cells by trichostatin A in a cell culture study.

[9] = system: tumor cell lines; conditions: cited from earlier work

concentration in the final solution (HPLC assay) [1]: 15000 µg/mL
SMILES: CO[C@H]1C[C@@H]2CC[C@@H](C)[C@@](O)(O2)C(=O)C(=O)N2CCCC[C@H]2C(=O)O[C@H]([C@H](C)C[C@@H]2CC[C@@H](OC(=O)C(C)(CO)CO)[C@H](OC)C2)CC(=O)[C@H](C)/C=C(\C)[C@@H](O)[C@@H](OC)C(=O)[C@H](C)C[C@H](C)/C=C/C=C/C=C/1C [CCI-779]

SMILES: Nc1nc(Cl)nc2c1ncn2[C@H]1C[C@H](O)[C@@H](CO)O1 [Cladribine, 2-chlorodeoxyadenosine]
effect of added agent on anti-proliferative rapamycin dose response [2]: potentiate the anti-proliferative activity of rapamycin
inhibition of human coronary artery smooth muscle cell proliferation ([2]; two percent fetal bovine serum): completely inhibits

SMILES: COc1cc2c(cc1O)CC[C@@H]1[C@@H]2CC[C@]2(C)[C@@H](O)CC[C@@H]12 [Panzem®, 2-methoxyestradiol]
effect of added agent on anti-proliferative rapamycin dose response [3]: increases the percent of inhibition of rapamycin alone
inhibition of human coronary artery smooth muscle cell proliferation in vitro ([3]; two percent fetal bovine serum): extremely effective inhibitor
human coronary artery smooth muscle cell survival (MTS) [4]: do not reduce human coronary artery smooth muscle cell survival

drug remaining in the drug coating [5]: ~80%
SMILES: CO[C@H]1C[C@@H]2CC[C@@H](C)[C@@](O)(O2)C(=O)C(=O)N2CCCC[C@H]2C(=O)O[C@H]([C@H](C)C[C@@H]2CC[C@@H](O)[C@H](OC)C2)CC(=O)[C@H](C)/C=C(\C)[C@@H](O)[C@@H](OC)C(=O)[C@H](C)C[C@H](C)/C=C/C=C/C=C/1C [Rapamycin, rapamycin]

SMILES: O=C1CCc2cc(OCCCCc3nnnn3C3CCCCC3)ccc2N1 [cilostazol, 6[4-(1-cyclohexyl-1H-tetrazol-5-yl)-butoxy]-3,4-dihydro-2-(1H)-quinolinone]
drug remaining in the drug coating [5]: ~80%
in vitro release [6]: ~35%

SMILES: COc1cc([C@@H]2c3cc4c(cc3[C@@H](O[C@@H]3O[C@@H]5CO[C@@H](C)O[C@H]5[C@H](O)[C@H]3O)[C@H]3COC(=O)[C@H]23)OCO4)cc(OC)c1O [etoposide]
effect of added agent on anti-proliferative rapamycin dose response [2]: potentiate the anti-proliferative activity of rapamycin
cytotoxicity in cell viability assay ([7]; concentrations up to ten micromolar): non-cytotoxic

SMILES: COc1c(C)c2c(c(O)c1C/C=C(\C)CCC(=O)O)C(=O)OC2 [mycophenolic acid]
effect of added agent on anti-proliferative rapamycin dose response [2]: potentiates the anti-proliferative activity of rapamycin

SMILES: CC[C@@]1(O)C(=O)OCc2c1cc1n(c2=O)Cc2cc3c(CN(C)C)c(O)ccc3nc2-1 [topotecan]
effect of added agent on anti-proliferative rapamycin dose response [3]: potentiate the anti-proliferative activity of rapamycin
cytotoxicity in cell viability assay ([7]; concentrations up to one micromolar): non-cytotoxic

SMILES: CC(/C=C/C(=O)NO)=C\[C@@H](C)C(=O)c1ccc(N(C)C)cc1 [trichostatin A]
inhibition of human coronary artery smooth muscle cell proliferation [8]: completely inhibit
IC50 ([8]; read-out: anti-proliferative IC50): ~6 nM
anti-proliferative IC50 [9]: low nM range
